Results from patent US20190105367A1, “ANTIMICROBIAL 4-OXOQUINOLIZINES” (Emergent Product Development Gaithersburg Inc., priority 2011, published 2019).
Values after ≈ are worked out from the molar mass of the structure shown. Read-outs that look alike come from different tables or passages of the source.

Assays:
B. thailandensis = format: cell-based, Burkholderia thailandensis
A. baumannii ATCC 19606 = test: MIC, selected panel of bacterial strains (Example 5); format: cell-based, Acinetobacter baumannii
[1] = system: S. aureus BAA-1556 (USA300-Type) (MRSA, FQ-R); test: as above; format: cell-based, Staphylococcus aureus; conditions: Staphylococcus aureus, read-out: MICs against Gram positive bacteria S. aureus BAA-1556 (USA300-Type) (MRSA, FQ-R)
S. aureus ATCC 25923 = test: as above; format: cell-based, Staphylococcus aureus
[2] = system: S. aureus ATCC 43300 (MRSA, FQ-S); test: as above; format: cell-based, Staphylococcus aureus; conditions: Staphylococcus aureus, read-out: MICs against Gram positive bacteria S. aureus ATCC 43300 (MRSA, FQ-S)
E. coli ATCC 25922 = test: as above; format: cell-based, Escherichia coli; conditions: Escherichia coli, ATCC25922, read-out: MICs against Gram negative bacteria E. coli ATCC 25922
[3] = Acinetobacter baumannii, ATCC19606, read-out: MICs against Gram negative bacteria A. baumannii ATCC 19606
[4] = Staphylococcus aureus, ATCC25923, read-out: MICs against Gram positive bacteria S. aureus ATCC 25923

| Compound | MIC (S. aureus ATCC 25923; [4]) [µg/mL] | MIC [2] [µg/mL] | MIC (E. coli ATCC 25922) [µg/mL] | further results |
| --- | --- | --- | --- | --- |
| 8-(4-amino-3-ethyl-5-methyl- phenyl)-1-cyclopropyl-9- methyl-4-oxo-quinolizine-3- carboxylic acid [Compound 16] |  |  |  | MIC90 B. thailandensis (B. thailandensis): <0.048 µg/mL |
| Cc1c(-c2ccc(CN)s2)ccn2c(=O)c(C(=O)[O-])cc(C3CC3)c12.[K+] [Compound 13K salt, potassium 8-(5-(aminomethyl)thiophen-2-yl)-1-cyclopropyl-9-methyl-4-oxo-4H-quinolizine-3-carboxylate] |  |  |  | MIC (A. baumannii ATCC 19606; [3]): 0.125 µg/mL |
| Cc1c(-c2cccc(O)c2)ccn2c(=O)c(C(=O)[O-])cc(C3CC3)c12.[K+] [Compound 56K salt, potassium 1-cyclopropyl-8-(3-hydroxyphenyl)-9-methyl-4-oxo-4H-quinolizine-3-carboxylate] |  |  |  | MIC (A. baumannii ATCC 19606; [3]): 0.125 µg/mL; MIC [1]: 0.125 µg/mL |
| Cc1c(-c2ccc(O)cc2)c(F)cn2c(=O)c(C(=O)[O-])cc(C3CC3)c12.[K+] [Compound 61K salt, potassium 8-(4-hydroxyphenyl)-1-cyclopropyl-7-fluoro-9-methyl-4-oxo-4H-quinolizine-3-carboxylate] | 50 | < 0.004 |  | MIC (A. baumannii ATCC 19606; [3]): 0.125 µg/mL |
| CC(=O)NCc1ccc(-c2ccn3c(=O)c(C(=O)[O-])cc(C4CC4)c3c2C)cc1.[K+] [Compound 64K salt, potassium 8-(4-(Acetamidomethyl)phenyl)-1-cyclopropyl-9-methyl-4-oxo-4H-quinolizine-3-carboxylate] |  |  | 0.125 |  |
| COc1cc(-c2ccn3c(=O)c(C(=O)[O-])cc(C4CC4)c3c2C)ccc1O.[K+] [Compound 66K salt, potassium 8-(4-hydroxy-3-methoxyphenyl)-1-cyclopropyl-9-methyl-4-oxo-4H-quinolizine-3-carboxylate] |  |  | 0.125 |  |
| Cc1c(-c2ccc3c(c2)C(=O)NC3)ccn2c(=O)c(C(=O)[O-])cc(C3CC3)c12.[K+] [Compound 68K salt, potassium 8-(3-oxoisoindolin-5-yl)-1-cyclopropyl-9-methyl-4-oxo-4H-quinolizine-3-carboxylate] | 50 | 50 |  |  |
| CNc1ccc(-c2ccn3c(=O)c(C(=O)[O-])cc(C4CC4)c3c2C)cc1C.[K+] [Compound 69K salt, potassium 8-(3-methyl-4-(methylamino)phenyl)-1-cyclopropyl-9-methyl-4-oxo-4H-quinolizine-3-carboxylate] | 50 | 50 | 0.125 |  |
| Cc1c(-c2ccc(O)c(F)c2)ccn2c(=O)c(C(=O)[O-])cc(C3CC3)c12.[K+] [Compound 70K salt, potassium 8-(3-fluoro-4-hydroxyphenyl)-1-cyclopropyl-9-methyl-4-oxo-4H-quinolizine-3-carboxylate] | 50 | 50 |  | MIC (A. baumannii ATCC 19606; [3]): 0.125 µg/mL |
| Cc1c(-c2ccc3[nH]nc(C4CC4)c3c2)ccn2c(=O)c(C(=O)[O-])cc(C3CC3)c12.[K+] [Compound 71K salt, potassium 8-(3-cyclopropyl-1H-indazol-5-yl)-1-cyclopropyl-9-methyl-4-oxo-4H-quinolizine-3-carboxylate] | 50 | 50 | 0.125 | MIC [1]: 0.125 µg/mL |
| Cc1c(-c2ccc3sc(N)nc3c2)ccn2c(=O)c(C(=O)[O-])cc(C3CC3)c12.[K+] [Compound 73K salt, potassium 8-(2-aminobenzo[d]thiazol-5-yl)-1-cyclopropyl-9-methyl-4-oxo-4H-quinolizine-3-carboxylate] | 50 | 50 |  | MIC (A. baumannii ATCC 19606; [3]): 0.125 µg/mL |
| Cc1c(-c2ccc3[nH]ncc3c2)c(F)cn2c(=O)c(C(=O)[O-])cc(C3CC3)c12.[K+] [Compound 75K salt, potassium 8-(1H-indazol-5-yl)-1-cyclopropyl-7-fluoro-9-methyl-4-oxo-4H-quinolizine-3-carboxylate] | 50 | 50 |  |  |
| Cc1c(-c2ccc3c(c2)CCN3)ccn2c(=O)c(C(=O)[O-])cc(C3CC3)c12.[K+] [Compound 77K salt, potassium 8-(indolin-5-yl)-1-cyclopropyl-9-methyl-4-oxo-4H-quinolizine-3-carboxylate] |  |  | 0.125 |  |
| CNc1ccc(-c2ccn3c(=O)c(C(=O)[O-])cc(C4CC4)c3c2C)cn1.[K+] [Compound 78K salt, potassium 8-(6-(methylamino)pyridin-3-yl)-1-cyclopropyl-9-methyl-4-oxo-4H-quinolizine-3-carboxylate] |  |  |  | MIC (A. baumannii ATCC 19606; [3]): 0.125 µg/mL; MIC [1]: 0.125 µg/mL |
| Cc1cc(-c2ccn3c(=O)c(C(=O)[O-])cc(C4CC4)c3c2C)cnc1N.[K+] [Compound 79K salt, potassium 8-(6-amino-5-methylpyridin-3-yl)-1-cyclopropyl-9-methyl-4-oxo-4H-quinolizine-3-carboxylate] | 50 | 50 |  | MIC [1]: 0.125 µg/mL |
| Cc1n[nH]c2ccc(-c3ccn4c(=O)c(C(=O)[O-])cc(C5CC5)c4c3C)cc12.[K+] [Compound 80K salt, potassium 8-(3-methyl-1H-indazol-5-yl)-1-cyclopropyl-9-methyl-4-oxo-4H-quinolizine-3-carboxylate] | 50 | 50 |  | MIC [1]: 0.125 µg/mL |
| Cc1c(-c2ccc3c(cnn3C)c2)ccn2c(=O)c(C(=O)[O-])cc(C3CC3)c12.[K+] [Compound 81K salt, potassium 8-(1-methyl-1H-indazol-5-yl)-1-cyclopropyl-9-methyl-4-oxo-4H-quinolizine-3-carboxylate] | 50 | 50 |  | MIC (A. baumannii ATCC 19606; [3]): 0.125 µg/mL |
| Cc1c(-c2ccc(N3CCNCC3)nc2)ccn2c(=O)c(C(=O)[O-])cc(C3CC3)c12.[K+] [Compound 84K salt, potassium 8-(6-(piperazin-1-yl)pyridin-3-yl)-1-cyclopropyl-9-methyl-4-oxo-4H-quinolizine-3-carboxylate] | 0.125 | 0.125 |  |  |
| Cc1c(-c2cnc3[nH]ccc3c2)ccn2c(=O)c(C(=O)[O-])cc(C3CC3)c12.[K+] [Compound 85K salt, potassium 8-(1H-pyrrolo[2,3-b]pyridin-5-yl)-1-cyclopropyl-9-methyl-4-oxo-4H-quinolizine-3-carboxylate] | 50 | 50 |  |  |
| Cc1cn2c(=O)c(C(=O)[O-])cc(C3CC3)c2c(C)c1-c1ccc(N)nc1.[K+] [Compound 87K salt, potassium 8-(6-amino-pyridin-3-yl)-1-cyclopropyl-7,9-dimethyl-4-oxo-4H-quinolizine-3-carboxylate] |  |  | 0.125 |  |
| Cc1cn2c(=O)c(C(=O)[O-])cc(C3CC3)c2c(C)c1-c1ccc2[nH]ncc2c1.[K+] [Compound 88K salt, potassium 8-(1H-indazol-5-yl)-1-cyclopropyl-7,9-dimethyl-4-oxo-4H-quinolizine-3-carboxylate] |  |  | 0.125 |  |
| COc1c(-c2ccc(N)nc2)ccn2c(=O)c(C(=O)[O-])cc(C3CC3)c12.[K+] [Compound 89K salt, potassium 8-(6-amino-pyridin-3-yl)-1-cyclopropyl-9-methoxy-4-oxo-4H-quinolizine-3-carboxylate] |  |  | 0.125 |  |
| COc1c(-c2ccc3[nH]ncc3c2)ccn2c(=O)c(C(=O)[O-])cc(C3CC3)c12.[K+] [Compound 90K salt, potassium 8-(1H-indazol-5-yl)-1-cyclopropyl-9-methoxy-4-oxo-4H-quinolizine-3-carboxylate] |  |  | 0.125 |  |
| C[C@H]1c2cccc(O)c2C(=O)C2=C(O)[C@]3(O)C(=O)C(C(N)=O)=C(O)[C@@H](N(C)C)[C@@H]3[C@@H](O)[C@@H]21 [Doxycycline, reference compound] |  |  |  | MIC (A. baumannii ATCC 19606; Acinetobacter baumannii, ATCC19606; read-out: MICs against Gram negative bacteria A. baumannii ATCC 19606): 0.125 µg/mL (≈ 0.281 µM); MIC (S. aureus ATCC 25923; Staphylococcus aureus, ATCC25923; read-out: MICs against Gram positive bacteria S. aureus ATCC 25923): 0.125 µg/mL (≈ 0.281 µM) |
